According to the Kinase Knowledgebase extract (Sharma et al. 2016):

Molecular target: MAPK14 (human) (UniProt Q16539)
Assay: Inhibition of In vitro MAPK14 Kinase Activity

MAPK14 (human), sequence (Q16539 whole entry, looked up): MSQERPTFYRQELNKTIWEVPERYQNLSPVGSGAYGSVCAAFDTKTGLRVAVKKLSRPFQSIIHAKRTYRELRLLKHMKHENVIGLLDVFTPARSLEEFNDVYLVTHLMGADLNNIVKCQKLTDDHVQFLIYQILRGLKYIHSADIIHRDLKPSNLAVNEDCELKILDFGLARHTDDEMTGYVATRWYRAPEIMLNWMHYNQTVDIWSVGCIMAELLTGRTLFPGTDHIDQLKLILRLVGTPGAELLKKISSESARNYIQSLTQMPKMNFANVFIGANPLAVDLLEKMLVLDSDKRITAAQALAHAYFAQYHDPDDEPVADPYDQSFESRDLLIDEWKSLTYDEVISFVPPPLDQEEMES

Row | SMILES | IC50 [µM]
1 | O=c1c(Br)c(NCC(O)c2ccccc2)cnn1-c1c(Cl)cccc1Cl (configuration not stated) | 0.1 to 20
2 | O=c1c(Br)c(OCCCc2ccccc2)cnn1-c1c(Cl)cccc1Cl | > 100
3 | O=c1[nH]ncc(OCCc2ccccc2)c1Br | > 100
4 | O=c1c(Br)c(OCc2ccc(F)cc2F)cnn1-c1c(Cl)cncc1Cl | 0.1 to 20
5 | C[C@H](Nc1cnn(-c2c(Cl)cccc2Cl)c(=O)c1Br)[C@H](O)c1ccccc1 | > 100
6 | O=C(O)C(Nc1cnn(-c2c(Cl)cccc2Cl)c(=O)c1Br)c1ccccc1 (configuration not stated) | > 100
7 | O=c1c(Br)c(OCc2ccccc2CO)cnn1-c1c(Cl)cccc1Cl | 0.1 to 20
8 | O=c1c(Br)c(NCc2ccc(F)cc2)cnn1-c1c(Cl)cccc1Cl | 0.1 to 20
9 | CC(C)Cc1c(OCCc2ccccc2)cnn(-c2c(Cl)cccc2Cl)c1=O | > 100
10 | Cc1c(OCCc2ccccc2)cnn(-c2c(Cl)cccc2Cl)c1=O | 0.1 to 20
11 | O=c1c(Br)c(N[C@@H]2C[C@H]2c2ccccc2)cnn1-c1c(Cl)cccc1Cl | > 100
12 | O=c1c(Br)c(NCC(CCO)c2ccc(Cl)cc2)cnn1-c1c(Cl)cccc1Cl (configuration not stated) | > 100
13 | O=c1c(Br)c(OCCc2ccccc2)cnn1-c1c(Cl)cccc1Cl | 0.1 to 20
14 | O=c1c(Br)c(OCc2ccc(F)c(F)c2)cnn1-c1c(Cl)cccc1Cl | 0.1 to 20
15 | O=c1c(Br)c(Sc2ccc(F)cc2)cnn1Cc1ccccc1 | > 100
16 | COc1ccccc1COc1cnn(-c2c(Cl)cccc2Cl)c(=O)c1Br | 0.1 to 20
17 | O=c1c(Br)c(NCc2cccc(Cl)c2)cnn1-c1c(Cl)cccc1Cl | 20 to 40
18 | CN(CCc1ccccc1)c1cnn(-c2c(Cl)cccc2Cl)c(=O)c1Br | 20 to 40
19 | O=c1[nH]ncc(OCc2ccc(F)cc2F)c1Br | > 100
20 | C[C@@H](Nc1cnn(-c2c(Cl)cccc2Cl)c(=O)c1Br)[C@@H](O)c1ccccc1 | > 100
21 | O=c1c(Br)c(OCc2c(F)cc(F)cc2F)cnn1-c1c(Cl)cccc1Cl | 0.1 to 20
22 | O=c1c(Br)c(NCc2ccc(F)cc2)cnn1Cc1ccccc1 | 60 to 80
23 | Cc1nc(Cn2ncc(OCc3ccc(F)cc3F)c(Br)c2=O)cs1 | 0.1 to 20
24 | O=c1c(Br)c(OCc2ccccc2)cnn1-c1ccccc1 | 20 to 40
25 | O=c1c(Br)c(N(CCO)CCc2ccccc2)cnn1-c1c(Cl)cccc1Cl | 40 to 60
26 | O=c1c(Br)c(NCC2CCCO2)cnn1-c1c(Cl)cccc1Cl (configuration not stated) | > 100
27 | O=c1c(Br)c(OCc2ccc(F)cc2F)cnn1-c1c(Cl)cccc1Cl | 0.1 to 20
28 | O=c1c(Br)c(OCCc2ccccc2)cnn1CCO | > 100
29 | CN(C)CCn1ncc(OCc2ccc(F)cc2F)c(Br)c1=O | > 100
30 | O=c1c(Br)c(OCc2ccc(F)cc2F)cnn1Cc1ccncc1 | 0.1 to 20

Other lines, results leading:

Row | IC50 [µM] | SMILES
31 | 40 to 60 | O=c1cc(OCCc2ccccc2)cnn1-c1c(Cl)cccc1Cl
32 | > 100 | O=c1c(Br)c(Nc2ccccc2)cnn1-c1c(Cl)cccc1Cl
33 | > 100 | CN(C)CCn1ncc(OCCc2ccccc2)c(Br)c1=O
34 | 0.1 to 20 | O=c1c(Br)c(N[C@H](CO)c2ccccc2)cnn1-c1c(Cl)cccc1Cl
35 | > 100 | O=c1c(Br)c(OCc2ccc(F)cc2)cnn1Cc1ccccc1
36 | 0.1 to 20 | O=c1c(Br)c(OCc2ccc(F)cc2F)cnn1-c1c(Cl)c[n+]([O-])cc1Cl
37 | > 100 | O=c1c(Br)c(NCC2CCCO2)cnn1Cc1ccccc1 (configuration not stated)
38 | 0.1 to 20 | O=c1c(Br)c(OCc2ccccc2CCl)cnn1-c1c(Cl)cccc1Cl
39 | 60 to 80 | COc1c(OCCc2ccccc2)cnn(-c2c(Cl)cccc2Cl)c1=O
40 | 60 to 80 | NN(Cc1ccccc1)c1cnn(-c2c(Cl)cccc2Cl)c(=O)c1Br
41 | 0.1 to 20 | O=c1c(Br)c(NCCc2ccccc2)cnn1-c1c(Cl)cccc1Cl
42 | 0.1 to 20 | O=c1c(Br)c(OCc2ccccc2)cnn1-c1c(Cl)cccc1Cl
43 | 80 to 100 | C[C@@H](Nc1cnn(-c2c(Cl)cccc2Cl)c(=O)c1Br)c1ccccc1
44 | > 100 | O=c1c(Br)c(O)cnn1-c1c(Cl)cccc1Cl
45 | 0.1 to 20 | O=c1c(Br)c(NCc2ccccc2)cnn1-c1c(Cl)cccc1Cl
46 | 0.1 to 20 | O=c1c(Br)c(OCc2ccc(F)cc2)cnn1-c1c(Cl)cccc1Cl
47 | > 100 | CN(C)CCCn1ncc(OCCc2ccccc2)c(Br)c1=O
48 | 0.1 to 20 | CS(=O)(=O)OCc1ccccc1COc1cnn(-c2c(Cl)cccc2Cl)c(=O)c1Br
49 | > 100 | O=c1c(Br)c(OCCc2ccccc2)cnn1Cc1ccncc1

Row | IC50 [µM] | SMILES
50 | > 100 | O=c1c(Br)c(NC(CO)Cc2ccccc2)cnn1-c1c(Cl)cccc1Cl (configuration not stated)
51 | 0.1 to 20 | O=c1c(Br)c(NCCc2ccccc2F)cnn1-c1c(Cl)cccc1Cl
52 | > 100 | O=c1c(Br)c(OCc2ccccc2)cnn1Cc1ccccc1
53 | 80 to 100 | O=C(O)CC(CNc1cnn(-c2c(Cl)cccc2Cl)c(=O)c1Br)c1ccc(Cl)cc1 (configuration not stated)
54 | 20 to 40 | O=c1c(Br)c(OCc2ccc(F)cc2F)cnn1CCO
55 | > 100 | CC(C)c1ccccc1Sc1cnn(Cc2ccccc2)c(=O)c1Br
56 | 0.1 to 20 | O=c1c(Br)c(OCCc2ccccn2)cnn1-c1c(Cl)cccc1Cl
57 | > 100 | O=c1c(Br)c(OCCc2ccccc2)cnn1Cc1ccccc1
58 | > 100 | O=c1c(Br)c(N[C@@H](CO)c2ccccc2)cnn1-c1c(Cl)cccc1Cl
59 | 0.1 to 20 | Nc1ccccc1CNc1cnn(-c2c(Cl)cccc2Cl)c(=O)c1Br
60 | > 100 | CN(C)CCCn1ncc(OCc2ccc(F)cc2F)c(Br)c1=O
61 | 0.1 to 20 | C[C@H](Nc1cnn(-c2c(Cl)cccc2Cl)c(=O)c1Br)c1ccccc1
62 | > 100 | O=c1c(Br)c(Sc2ccc(F)cc2)cnn1-c1c(Cl)cccc1Cl
63 | > 100 | O=c1c(-c2ccccc2)c(OCCc2ccccc2)cnn1-c1c(Cl)cccc1Cl
64 | 0.1 to 20 | O=c1c(Br)c(OCc2ccc(F)c(F)c2F)cnn1-c1c(Cl)cccc1Cl
65 | > 100 | O=C(O)C(Nc1cnn(Cc2ccccc2)c(=O)c1Br)c1ccccc1 (configuration not stated)
66 | > 100 | O=c1c(Oc2ccccc2)c(OCCc2ccccc2)cnn1-c1c(Cl)cccc1Cl
67 | > 100 | O=c1c(Br)c(N2CCN(c3ccc(F)cc3)CC2)cnn1-c1c(Cl)cccc1Cl
